PubChem BioAssay (NCI)
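Five concentrations, 48 hours, 96-well plates. Here, GI50 denotes the concentration required for 50% inhibition of growth. Definition used: TGI = concentration required for complete inhibition of growth.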

Columns and labels:
Experiment in all cases: DTP human tumour cell line panel, 48 h; in the data active = GI50 below about 0.43 µM; inactive = the rest
SF-268 CNS = system: SF-268 CNS
KM12 colon = system: KM12 colon
SR leukemia = system: SR leukemia
PC-3 prostate = system: PC-3 prostate
NCI/ADR-RES ovarian = system: NCI/ADR-RES ovarian
OVCAR-4 ovarian = system: OVCAR-4 ovarian
LOX IMVI melanoma = system: LOX IMVI melanoma
U251 CNS = system: U251 CNS
COLO 205 colon = system: COLO 205 colon
BT-549 breast = system: BT-549 breast
A549 NSCLC = system: A549 NSCLC
HL-60(TB) leukemia = system: HL-60(TB) leukemia
HCT-15 colon = system: HCT-15 colon
CCRF-CEM leukemia = system: CCRF-CEM leukemia
NCI-H226 lung = system: NCI-H226 lung
MOLT-4 leukemia = system: MOLT-4 leukemia
UACC-257 melanoma = system: UACC-257 melanoma
SK-MEL-2 melanoma = system: SK-MEL-2 melanoma
HOP-62 NSCLC = system: HOP-62 NSCLC
HT29 colon = system: HT29 colon
SK-OV-3 ovarian = system: SK-OV-3 ovarian
HCC-2998 colon = system: HCC-2998 colon
EKVX NSCLC = system: EKVX NSCLC
MDA-MB-435 = system: MDA-MB-435
SN12C renal = system: SN12C renal
CAKI-1 renal = system: CAKI-1 renal
SNB-19 CNS = system: SNB-19 CNS
NCI-H522 lung = system: NCI-H522 lung

Oc1ccc(CSc2nnc(-c3cnccn3)n2-c2ccccc2)c2cccnc12
> 49600 nM: TGI (BT-549 breast)
active: GI50 (SR leukemia) 409 nM | GI50 (NCI/ADR-RES ovarian) 309 nM | GI50 (HCT-15 colon) 408 nM | GI50 (SN12C renal) 392 nM | GI50 (NCI-H522 lung) 353 nM
inactive: GI50 (SF-268 CNS) 782 nM | GI50 (KM12 colon) 1450 nM | GI50 (PC-3 prostate) 586 nM | GI50 (OVCAR-4 ovarian) 3650 nM | GI50 (LOX IMVI melanoma) 559 nM | GI50 (U251 CNS) 470 nM | GI50 (COLO 205 colon) 11700 nM | GI50 (BT-549 breast) 736 nM | GI50 (A549 NSCLC) 1180 nM | GI50 (HL-60(TB) leukemia) 594 nM | GI50 (CCRF-CEM leukemia) 563 nM | GI50 (NCI-H226 lung) 3780 nM | GI50 (MOLT-4 leukemia) 707 nM | GI50 (UACC-257 melanoma) 2160 nM | GI50 (SK-MEL-2 melanoma) 566 nM | GI50 (HOP-62 NSCLC) 729 nM | GI50 (HT29 colon) 3990 nM | GI50 (SK-OV-3 ovarian) 1280 nM | GI50 (HCC-2998 colon) 2900 nM | GI50 (EKVX NSCLC) 1870 nM | GI50 (MDA-MB-435) 571 nM | GI50 (CAKI-1 renal) 1980 nM | GI50 (SNB-19 CNS) 522 nM
> 92300 nM: TGI (CAKI-1 renal)
5090 nM: TGI (HL-60(TB) leukemia)
18200 nM: TGI (SK-OV-3 ovarian)
> 28700 nM: TGI (UACC-257 melanoma)
13400 nM: TGI (LOX IMVI melanoma)
50800 nM: TGI (HOP-62 NSCLC)
> 100000 nM: TGI (SF-268 CNS) | TGI (KM12 colon) | TGI (SR leukemia) | TGI (PC-3 prostate) | TGI (OVCAR-4 ovarian) | TGI (U251 CNS) | TGI (COLO 205 colon) | TGI (A549 NSCLC) | TGI (HCT-15 colon) | TGI (CCRF-CEM leukemia) | TGI (NCI-H226 lung) | TGI (MOLT-4 leukemia) | TGI (HT29 colon) | TGI (HCC-2998 colon) | TGI (EKVX NSCLC) | TGI (MDA-MB-435) | TGI (SN12C renal) | TGI (SNB-19 CNS) | TGI (NCI-H522 lung)
> 34800 nM: TGI (NCI/ADR-RES ovarian)
